Experimental data taken from patent US20240335397A1, “USE OF POLYAMINES IN THE TREATMENT OF BRAIN TUMOURS” (priority 2021, published 2024).
Where two headings read alike, the source gives them in different places.

Legend:
U87 cell line spheroid = details: for Invasion from spheroid: 2 wt % HA gel pre-mixed with polyamine; for Binding to HA (rank among polyamines): inferred from spheroid invasion in 2 wt % HA gel
Protocol: FIG. 3. Neutralisation of polyamine toxicity by matrix polyanions assayed in vitro. U87 cells were suspended at 5K cells per spheroid and then grown in medium in non-adherent plates for 7-10 days until seeded into 2% HA gel pre-mixed with a polyamine for 24 hours. (A) Representative microscopic images (multiplication 5×, field view: 1800 μm×2500 μm) were taken on day 2 after spheroid was seeded into the gel. (B) Area of invasion was determined by measurement of invasion distance from the centre of four independent spheroids in four directions on days 1, 2 and 3.
Strength of polyamine binding to polyanions (hyaluronic acid, GAGs) in (normal) brain ECM is a decisive factor which targets polyamine toxicity towards cancer cells rather than brain cells. When binding is strong, a polyamine will be neutralised before reaching cellular membrane which is surrounded by extracellular polyanions. When binding is weak, sufficient concentration of polyamine may kill the cell even though the cell is surrounded by polyanions. To test the binding strength of different polyamines, we developed a 3D neutralisation assay: the invasion from a neuroepithelial cancer spheroid (U87 cell line) was monitored in vitro in 2 wt % HA gel pre-mixed with different polyamines. Invasion from spheroid was indicative of cell survival and thus predictive of a strong binding of the polyamine to brain polyanions in vivo. A weak in vitro binding of a polyamine to HA manifested itself by the absence of invasion, i.e. cell poisoning, and thus was predictive of weak binding of the polyamine to brain polyanions in vivo.
In detail, polyamines were mixed with 2 wt % hyaluronic acid mixed with full MEM medium containing 10% foetal bovine serum to support cell growth to achieve the desired polyamine concentration and the resulting hyaluronic acid/polyamine gel plated in 24-well plates. One 3D tumour spheroid of U87 GBM cells was placed in each well. The invasion into the surrounding hyaluronic acid-rich matrix was imaged over several days and the invasion area measured by determining the maximum invasion distance in four orthogonal directions from the centre of the tumour spheroid and compared to controls with no polyamine in the hyaluronic acid matrix.

U87 cells [1] = test: Acute toxicity of polyamines to U87 cells in liquid medium (CellToxGreen fluorescence, bright field images); assay type: cell-based; details: for EC50: Homo sapiens, U-87 MG, 1 h, U87 cells, liquid medium, 60 minutes incubation, CellToxGreen normalised to lysis buffer control, read-out: EC50 (cell death)
Protocol: FIG. 1. Comparative acute toxicity of selected linear polyamines towards cancer cell line of neuroepithelial origin. U87 cells were plated in 24-well plates and grown for about 3 days in liquid medium up to 50% confluency. Cell death was assayed via CellToxGreen (Promega) fluorescence after 60 minutes incubation with a polyamine and normalised to control in a lysis buffer.
We tested polyamine toxicity to U87 cells, an invasive cancer cell line of neuroepithelial origin, when they were plated and incubated in full MEM medium, containing 10% foetal bovine serum.

U87 cells [2] = test: 2D-scanning cell toxicity assay: polyamine injected into well of U87 cells under 3 wt % HA gel; assay type: cell-based; details: for Level of protection by HA of distant cells (rank): FIG. 4
Protocol: FIG. 4. […] Adherent cells were grown in 24-well plates in 3% HA gel until achieved 40-50% confluency. Non-toxic fluorescent dye—CellToxGreen (Promega)—was premixed into the gel. 30 μL of polyamine ( 1/20 of total gel volume) was injected at 6 o'clock position of the well. CellToxGreen penetrated only into the dead cells with compromised membranes, bound to their DNA and emitted green fluorescence, i.e. increase in fluorescence intensity quantified cell death. Cells were monitored for 7 days using well scanning functions of a fluorescent reader FLUOstar (BMG Labtech, Germany). (A) Drawing of a well to show the point of injection of polyamine and the fate of cells near the injection point; and a representative image of a well assembled from 44 scanned patches. The higher the fluorescence intensity of a patch, the higher was the number of dead cells. (B) Ratio of dead cell fluorescence in two opposite areas of the well. Ratio=[fluorescence intensity in 22 patches adjacent to the injection point]/[fluorescence intensity in 22 patches opposing the injection point]. […] Multiplication 5×, field view: 2500 μm×1800 μm.
When brain cancers develop, it is within the polyanion (hyaluronic acid and GAG)-enriched environment of normal brain matrix, which in the tumour vicinity is degraded, diluted by oedema while the tumour itself synthesizes new specialized matrix with very different composition to normal brain (see Example 2). […] First, a cancer cell line of the neuroepithelial origin (U87) was plated, given a day for the cells to adhere to the well bottom and then covered by HA gel as a model of the polyanion-rich, normal brain ECM. Then, a polyamine was injected at the 6 o'clock position of each well (see FIG. 4). In the vicinity of the injection point, cells were expected to die, because the initial polyamine concentration was maximal in this region and the HA gel in this region was diluted by the carrier solvent (PBS). However, cells distant from the injection point were still surrounded by undiluted HA and the HA gel was expected to sequester the polyamine as it diffused through the HA gel, providing the polyamine binds strongly to HA and there is sufficient HA (i.e. the HA is not diluted) to bind sufficient polyamine to reduce the effective polyamine concentration to below the EC50 value. Thus, cells more distant from the injection point were expected to be protected from the polyamine, for as long as the polyamine remained strongly bound to the HA gel. Cell death was imaged over the well by scanning the well bottom for the fluorescence of a mortality dye, which binds DNA of cells with impaired membrane integrity.
In detail, U87 glioblastoma cells were grown in 24-well plates at with full MEM medium containing 10% foetal bovine serum until a layer of confluent cells covered the bottom of each well (FIG. 4). This liquid media was then removed leaving a layer of cells adhered to the bottom of each well. […] This hyaluronic acid plus protein gel represents a model of human brain extracellular matrix. CEIIToxGreen is a non-toxic molecule that can only enter dead cells, where it binds to DNA and emits green fluorescence. CEIIToxGreen thus allowed us to follow cell death over time in this assay by monitoring green fluorescence.
30 μL of different concentrations of polyamine was injected at the 6 o'clock position of each well and mapped the dead cell content in each well as a function of time. Specifically, each well was mapped as 44 congruent, contiguous tiles (FIG. 4A) and cell death in a tile was assayed as the net green fluorescence intensity from the tile.

NCr nu/nu mouse brain = test system: NCr nu/nu mouse brain
Protocol: FIG. 5. Weight gain and survival of NCr nu/nu mice after a single polyamine injection into the brain. 6 animals per group were randomised on day 0, and on day 1 injected with 10 μL of 4 and 10 mM of the following three polyamines: putrescine, spermidine and cadaverine. Animal weight, survival and behaviour was monitored for 14 days.
To test polyamine safety in vivo and assess their effect on brain function, a single injection of 10 μL into NCr nu/nu mouse brain was selected as a model. A 10 μL volume in a mouse brain correlates well with a 3 cm diameter tumour in human brain, which is a typical size, for example, for initial glioblastoma diagnosis. The injected volume is thus similar to what might be needed to be injected into a human brain tumour. Three polyamines were selected for testing: putrescine, spermidine and cadaverine. Polyamines were tested in two concentrations: the lowest concentration, 4 mM, was expected to be safe based on in vitro assays and the highest concentration, 10 mM, to show some toxicity for cadaverine at least.

recurrent GBM = details: in combination with Lomustine, patients with recurrent GBM; cited from earlier work

In the case of `NCCCCCCNCCCCCCN` [BHMTA, bis(hexamethylene)triamine], the “Concentrations showing cytotoxic effects in hyaluronic acid-rich matrix” value (from here on “Concentrations showing cytotoxic effects”) (U87 cell line spheroid) is reported as greater than 4000 µM.
With `NCCCCCN` [cadaverine] the EC50 (U87 cells [1]) was 6 mM, the “Concentrations showing cytotoxic effects” value (U87 cell line spheroid; human) was greater than 4000 µM and the “Protection of cells in HA gel distant from injection” value (shortened to “Protection of cells”) (U87 cells [2]; 10 mM) was “not protected”. The “Level of protection by HA of distant cells (rank)” value (U87 cells [2]; 3 wt % HA gel) was “lowest”, the “Animals died after 30 min of injection” value (NCr nu/nu mouse brain; 10 mM, 10 μL into brain) was 3 out of 6 and the “Further animals died within 24 hours” value (NCr nu/nu mouse brain; 10 mM, 10 μL into brain) was 2 animals. For the same molecule, the Survival (NCr nu/nu mouse brain; 10 mM, 10 μL into brain) was “Only one animal survived” and the “Weight loss of surviving animal” value (NCr nu/nu mouse brain; 10 mM, day 3, then fully recovered) was 18%.
In the case of `NCCCCN` [putrescine], the “Cytotoxicity in hyaluronic acid-rich matrix compared with media” value (U87 cell line spheroid) is reported as “almost completely abrogated”, the “Level of protection by HA of distant cells (rank)” value (U87 cells [2]; 3 wt % HA gel) is reported as “highest” and the “Protection of cells” value (U87 cells [2]; both 4 mM and 10 mM) is reported as “protected”. The “Acute toxicity in vivo” value (NCr nu/nu mouse brain; either concentration (4 mM, 10 mM), 10 μL into brain) was “Neither putrescine nor spermidine demonstrated acute toxicity”.
In the case of `NCCCCNCCCN` [spermidine], the EC50 (U87 cells [1]) is reported as 13 to 14 mM, the “Cytotoxicity in hyaluronic acid-rich matrix compared with media” value (U87 cell line spheroid; 2 wt % HA gel) is reported as “almost completely abrogated” and the Invasion from spheroid (U87 cell line spheroid) is reported as “invasion from spheroid was not affected”. The “Toxicity in 2 wt % hyaluronic acid” value (U87 cell line spheroid; 4-12 mM) was “non-toxic”, the “Binding to HA (rank among polyamines)” value (U87 cell line spheroid) was “strongest binder” and the “Time cells on opposite side of well remained viable” value (U87 cells [2]; 4-12 mM, 3 wt % HA gel) was “at least 7 days”. For the same molecule, the “Time in which cells close to injection site die” value (U87 cells [2]; 4-12 mM, 3 wt % HA gel) was 48 to 72 h, the “Toxicity for U87 cells close to injection site” value (U87 cells [2]; 4-12 mM, 3 wt % HA gel) was “highly toxic” and the “Protection of cells” value (U87 cells [2]; both 4 mM and 10 mM) was “protected”.
For `NCCCNCCCCNCCCN` [spermine], the “Mode of cell death in bright field images” value (U87 cells [1]; U87 cell suspensions, 10 mM and 20 mM, within 60 minutes) was “severe membrane disruption resulting in cell fragmentation”, the Invasion from spheroid (U87 cell line spheroid) was “invasion was strongly suppressed” and the “Concentrations showing cytotoxic effects” value (U87 cell line spheroid; human) was greater than 4000 µM. For the same molecule, the “Binding to HA (rank among polyamines)” value (U87 cell line spheroid) was “weakest binder”, the “Reduction of toxicity in hyaluronic acid-rich environment compared to same cell type in medium” value (U87 cells [2]; 10 mM, 3 wt % HA) was 3 fold less toxic and the “Effect on cells a few millimetres away from injection point” value (U87 cells [2]; 4-6 mM, 3 wt % HA gel) was “benign”. For the same molecule, the “Toxicity to cells close to injection point” value (U87 cells [2]; 4-6 mM, 3 wt % HA gel) was “toxic”.
For “Bevacizumab: monoclonal antibody against vascular endothelial growth factor (VEGF)”, the “Increase in median progression-free survival” value (recurrent GBM) is given as 0.23 months and the “Increase in overall survival” value (recurrent GBM) is given as 1.4 months.
